Measurements as given in patent publication US4855290A (priority 1985, dated 1989).
Where “and” joins values, the source holds several entries; their conditions need not be identical. Equal entries are not always repeated. Entries after “also recorded” stand apart in the source; their conditions may differ. Where two headings read alike, the source gives them in different places.

Legend:
[1] = Acute oral toxicity of AF102B in rats; format: in vivo, rats (Charles River CD strain)
Method: The test material was prepared at various concentrations in saline and was administered at a constant volume-sosage of 5 ml./kg. Dosages were selected according to the availability of the test material. Mortality and signs of reaction to treatment were recorded during a 14-day period. Early decedents and surviving animals were subjected to necropsy on Day 15.

[2] = Acute toxicity in mice, ip; format: in vivo; conditions: 80 mg./kg.
[3] = format: in vivo, mice; conditions: for dose level for antinociceptive activity: mouse, in vivo
[4] = molecular target: central muscarinic receptors (M1) (Rattus norvegicus, UniProt P08482); experiment: biochemical; format: binding; set-up: IC50^1 :IC50^2: unit not given beside the values
[5] = molecular target: central muscarinic receptors (M1 and M2); format: binding, rat
Guinea-pig ileum [6] = experiment: Guinea-pig ileum induced contractions
Source text: Guinea-pig ileum induced contractions
*This dose is the IC50 for inhibiting acetylcholineinduced
contractions of the ileum.

[7] = set-up: species or system Male Sprague-Dawley rats; conditions: rat, in vivo
[8] = Morris Swimming Maze in AF64A- and CSF-injected rats; format: in vivo, male Sprague Dawley rats; conditions: ip
Method: 38 male Sprague Dawley rats (raised by Charles River) 5-6 months old with an average weight of 500 g. were used. The rats were housed in groups of 5 and were given free access to food and water. Testing was carried out in a round white metal tub 1.4 m. diameter and 0.4 m. deep. The tub was filled with water, made opaque by milk powder to the level of 18 cm. A platform of 12 cm. diameter and at a height of 16 cm. was placed in the tub 2 cm. below water level. The platform was covered with gauze to prevent the animal from slipping back into the water after reaching the platform.
Prior to testing, the rat was placed on the platform for 120 secs., placed gently into the water, facing the wall of the pool, at one of four starting locations (north, south, east or west) around the pool's perimeter. Within each block of four trials, each rat was started at each of the four starting locations, with the sequence of starting locations randomly selected. Testing was carried out on 2 consecutive days with each rat submitted daily to eight trials. During trials 1-12 the platform was located in the center of the south-east quadrant and during trials 13-16 the platform was transferred to the center of the north-west quadrant. If in a particular trial the rat found the platform, it was permitted to remain on it for 60 secs. before starting the next trial. […] The latency to find the platform was measured.
For drug testing, rats were injected with AF64A or CSF (3 nmole/2 ul/side) as described in Experiment 2, above. The rats were subjected first to a step-through learning procedure (see Experiment 1, above) and were 3-3.5 months after injection when tested in the water maze. The rats were divided into 4 groups; 18 CSF-injected rats were treated either with physostigmine (0.1 mg./kg. ip) (10 rats) or with saline (8 rats). 20 AF64A-injected rats were divided similarly. The rats were injected with physostigmine immediately before testing on each day.
Forty male Sprague-Dawley rats (obtained from Charles River Breeding Laboratories U.K.), 5-6 months old, weighing 450-580 g. during the experiment served as subjects. Rats were housed in groups of 5 and were given free access to food and water. 2.5-3.5 months before behavioral testing, rats were injected with AF64A (3 nmole/2 ul/side) (20 rats-group 1) or CSF (20 rats-group 2) as described in the surgery procedure.
Each of the injected groups was randomly subdivided into two equal size treatment groups.

[9] = set-up: species or system Sprague Dawley rats; conditions: rat, in vivo, ip
[10] = Tremor induced by AF102B, mice; format: in vivo; conditions: ip
Source text: (§1) rats; these effects are observed around the toxic doses of the compound

[11] = Tremor induced by AF102B, rats; format: in vivo
Source text: as §1

[12] = mice
[13] = rats, ip
Guinea-pig ileum [14] = experiment: Guinea-pig ileum induced contractions; conditions: ileum contraction
in vivo [15] = conditions: mouse, po
in vivo [16] = conditions: mouse, iv
in vivo [17] = conditions: rat, ip
[18] = Hypothermia-inducing activity in rats
[19] = tested on: Salmonella typhimurium, strains TA-15365, TA-100, TA1538, TA-98 and TA-1537; experiment: Mutagenic activity (pour-plate assays)
[20] = tested on: acetyl- and butyryl-cholinesterase; experiment: Resistance to cholinesterases; format: in vitro ADME
[21] = mouse, icv; cited from earlier work
[22] = oxotremorine 0.5 mg./kg., ip; cited from earlier work
[23] = oxotremorine 0.5 mg./kg., ip; cited from earlier work; remark: listed apart in the source

Chain of central muscarinic receptors (M1) (P08482 whole entry): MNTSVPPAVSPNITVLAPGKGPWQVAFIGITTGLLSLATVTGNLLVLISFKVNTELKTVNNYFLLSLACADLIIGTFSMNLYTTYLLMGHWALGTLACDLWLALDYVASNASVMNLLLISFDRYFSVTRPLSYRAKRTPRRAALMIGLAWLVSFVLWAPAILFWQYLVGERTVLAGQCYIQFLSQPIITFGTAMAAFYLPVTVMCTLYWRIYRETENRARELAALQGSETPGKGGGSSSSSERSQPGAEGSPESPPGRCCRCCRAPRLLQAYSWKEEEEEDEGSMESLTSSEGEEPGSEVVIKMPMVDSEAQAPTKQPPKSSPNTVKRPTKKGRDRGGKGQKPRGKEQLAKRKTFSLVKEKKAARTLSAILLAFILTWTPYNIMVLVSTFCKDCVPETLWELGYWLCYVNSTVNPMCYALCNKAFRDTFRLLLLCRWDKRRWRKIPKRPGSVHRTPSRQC

In the case of `C[C@H]1O[C@]2(CS1)CN1CCC2CC1` (relative stereo) [AF102B], the deaths ([1]; oral) is reported as “deaths occurred at all four dose-levels studied, within three hours 30 minutes after dosing”, the necropsy observations ([1]; oral) is reported as “a single case of haemorrhagic contents and occasional congested gastric mucosa was observed; also recorded: Necropsy of surviving animals did not reveal any abnormalities” and the “principal signs of reaction to treatment” value ([1]; oral) is reported as “clonic convulsions, tremor, salivation, urogenital staining, diarrhoea and pigmented orbital secretion”. The “recovery and bodyweight of surviving animals” value ([1]; oral) was “all clinical signs of reaction to treatment were resolved by twenty four hours after dosing; also recorded: Surviving animals generally made expected bodyweight gains”, the LD50 at 336 h ([1]; rat, in vivo, po) was over 156 mg/kg and the death of mice [2] was “All mice died”. The “antinociceptive effect at highest non-lethal doses” value ([3]; mice, 60 mg./kg. p.o. and 40 mg./kg. i.p., vs codeine phosphate and oxotremorine) was “not fully developed at 60 mg./kg. p.o. and 40 mg./kg. i.p; also recorded: remained obviously weaker than those of codeine phosphate and oxotremorine”, the “dose level for antinociceptive activity” value ([3]; ip) was over 10 mg/kg and the “dose level for antinociceptive activity” value ([3]; po) was “greater than 20 mg./kg”. For the same molecule, the “onset of action following per os administration” value ([3]; po, analgesia, hypothermia and lethal dose level tests) was 10 to 15 min, the EC50 [4] was 0.4 µM and the IC50 [4] was 0.4 µM. For the same molecule, the “IC50^1 :IC50^2” value ([4]; PNZ:QNB displacement ratio) was 0.04, the IC50 ([5]; read-out: IC50^2 for displacement of [^3 H]-QNB) was 10 µM and the EC50 ([5]; summary table, read-out: EC50, [^3 H]--QNB-binding) was 10 µM. The “muscarinic agonist activity (TABLES 1 and 2)” value (Guinea-pig ileum [6]; binding and ileum) was “potent muscarinic agonist”, the Type of activity (Guinea-pig ileum [6]; guinea-pig ileum) was “agonist” and the duration of action [7] was “very long beneficial effect; also recorded: long duration of action”. For the same molecule, the “retention latency during extinction+latent extinction” value [7] was “No significant differences”, the “reversal of AF64A-induced memory impairments in passive avoidance” value [7] was “could be reversed; also recorded: reverses memory impairments in AF64A-treated rats” and the Initial latency ([7]; ip) was 16.71 ± 4.77 s and 11.86 ± 1.23 s and 19.71 ± 5.39 s. For the same molecule, the Initial-test latency ([7]; ip) was 18.40 ± 3.74 s and 15.30 ± 2.83 s, the Retention-test latency ([7]; ip) was 330.57 ± 75.55 s and 348.14 s and 551.71 s and 514.10 ± 38.21 s and 447.60 ± 58.09 s and the “retention latency during extinction” value ([7]; ip) was “significantly longer, F(1,36)=31.45, p<0.01; also recorded: significantly improved; also recorded: increased from the first to the fourth trial and then decreased”. For the same molecule, the “retention-test differences between doses” value ([7]; ip) was “no significant differences were found during the 24 hr. retention-test between the different doses of AF102B”, the Retention-test latency ([7]; po) was 524.55 ± 45.60 s and 600 s and the “retention of passive avoidance (statistics)” value ([7]; po) was “significantly longer [F(1,35)=28.46; p<0.001]; also recorded: significantly improved; also recorded: no significant difference between the AF102B-treated-CSF-injected group and the saline-treated-CSF-injected group; also recorded: significantly longer [F(1,18)=65.71; p<0.001]; also recorded: that of the CSF-injected group did not significantly change”. For the same molecule, the “effect in Morris Swimming Maze” value ([8]; AF102B 1 mg./kg., physostigmine 0.1 mg./kg.) was “counteracted; also recorded: reverses memory impairments in AF64A-treated rats; also recorded: definitely improved the memory deficits induced by AF64A; also recorded: significant decrease in escape latency”, the “effective dose, Morris Swimming Maze” value ([8]; AF64A rats) was 1 mg/kg and the “effect in 8-Arm Radial Maze” value [9] was “counteracted; also recorded: reverses memory impairments in AF64A-treated rats; also recorded: improves AF64A-induced memory impairments; also recorded: significant (p<0.001, F=17.5) decrease in the mean number of errors; also recorded: improved performance only when rats were previously injected icv with AF64A; also recorded: memory impairment could be reversed”. For the same molecule, the “effective dose, 8-Arm Radial Maze” value [9] was 5 mg/kg, the tremor-inducing dose [10] was 60 to 80 mg/kg and the tremor-inducing dose ([11]; ip) was over 78 mg/kg. For the same molecule, the tremor-inducing dose ([11]; po) was over 100 mg/kg, the Mortality (mice, 64 mg./kg. per os) was 0/5 and the Mortality (mice, 71 mg./kg. per os) was 0/5. For the same molecule, the Mortality (mice, 80 mg./kg. per os) was 2/5, the Mortality (mice, 90 mg./kg. per os) was 2/5 and the Mortality (mice, 101 mg./kg. per os) was 3/5. For the same molecule, the Mortality (mice, 113 mg./kg. per os) was 4/5, the “absorption by the enteric route” value (mice, inferred from i.v./oral LD50 ratio) was “efficient, rapid and apparently unaltered absorption” and the “LD50 (95% C.I.)” value (mice, oral) was 92(74-116) mg./kg. For the same molecule, the “Signs in reaction to treatment” value (mouse, in vivo) was “slightly enhanced intensity”, the “effects considered characteristic of parasympatho- or cholinomimetic activity” value (mouse, in vivo) was “none of the test animals exhibited effects considered characteristic of parasympatho- or cholinomimetic activity” and the Mortality ([12]; 31 mg./kg. i.v.) was 3/6. The Mortality ([12]; 33 mg./kg. i.v.) was 1/6, the Mortality ([12]; 35 mg./kg. i.v.) was 5/6 and the Mortality ([12]; 37 mg./kg. i.v.) was 6/6. The Mortality ([12]; 39 mg./kg. i.v.) was 6/6, the “LD50 (95% C.I.)” value ([12]; intravenous) was 33(31-35) mg./kg and the “principal signs of reaction to treatment” value [13] was “spastic and tonic convulsions, tremors, tachypnoea and dyspnoea, decreased motor activity, slight to very strong salivation and urination”. For the same molecule, the deaths ([13]; 20.0-187.0 mg./kg.) was “deaths occurred at the three highest dose levels (61, 107, 187 mg./kg.), within twenty minutes after dosing”, the slope ([13]; acute toxicity curve) was 83 ° and the LD50 ([13]; 20160 min) was 78 mg/kg. The EC50 (Guinea-pig ileum [14]) was 4 µM, the LD50 (in vivo [15]) was 92 mg/kg and the LD50 (in vivo [16]) was 33 mg/kg. The LD50 at 336 h (in vivo [17]; LD50 (95% C.L.), rats) was 77.6 mg/kg, the LD50 at 336 h (in vivo [17]; LD50, rats) was 77.6 mg/kg and the cholinomimetic manifestation ([18]; AF102B at 80 mg./kg. p.o. and 60 mg./kg. i.p., oxotremorine 3.2 mg./kg. p.o. or 1.2 mg./kg. i.p.) was “Slight diarrhea was the single cholinomimetic manifestation”. For the same molecule, the “dose level for hypothermia inducing activity” value ([18]; i.p.) was over 15 mg/kg, the “dose level for hypothermia inducing activity” value ([18]; p.o.) was “greater than 40 mg./kg” and the inhibition of growth ([19]; 1000 ug. per plate) was “No inhibition of growth”. For the same molecule, the “mutagenic activity (reversion to prototrophy)” value ([19]; five strains, presence or absence of S-9 mix) was “No increases in reversion to prototrophy; also recorded: devoid of mutagenic activity; also recorded: not mutagenic up to high concentrations”.

For `CC1OC2(CS1)CN1CCC2CC1` (stereo not drawn) [(Ia), 2-methylspiro(1,3-oxathiolan-5,3')quinuclidine], the “pharmacological activity (muscarinic)” value [4] was “muscarinic agonist with a high specificity for the central nervous system” and the “destruction by acetyl- and butyryl-cholinesterase” value [20] was “not destroyed”.

In the case of `CN1CCN(CC(=O)N2c3ccccc3C(=O)Nc3cccnc32)CC1` [PNZ, pirenzepine], the “minimum effective dose producing impaired passive avoidance learning” value [21] is listed as 0.1 ug/mouse, icv, the “dose required to reduce the effect of oxotremorine by 50%, tremor” value [22] is listed as 5.8 ug/mouse, icv and the “dose required to reduce the effect of oxotremorine by 50%, antinociception” value [23] is listed as 4.6 ug/mouse, icv.
